Measurements as given in PMC12703428, “Development of Granzyme A Turn‐ON Fluorescent Activity‐Based Probes” (Chembiochem, 2025).
Square brackets hold non-standard residues; d marks the D form. Ends that are not written are not given here. Oic = O=C(O)[C@@H]1C[C@@H]2CCCC[C@@H]2N1; Tic = O=C(O)[C@@H]1Cc2ccccc2CN1

How the values were obtained:
[1] = molecular target: T1, pro‐form of GzmA (without signal peptide) (Homo sapiens, UniProt P12544); assay: In-gel fluorescence labeling of pro-form of hGzmA; type: biochemical; conditions: probe 50 nM, 2 h, 37 °C
T1 construct: purchased R&D Systems 2905-SE-010
T1 sequence (P12544 29-262): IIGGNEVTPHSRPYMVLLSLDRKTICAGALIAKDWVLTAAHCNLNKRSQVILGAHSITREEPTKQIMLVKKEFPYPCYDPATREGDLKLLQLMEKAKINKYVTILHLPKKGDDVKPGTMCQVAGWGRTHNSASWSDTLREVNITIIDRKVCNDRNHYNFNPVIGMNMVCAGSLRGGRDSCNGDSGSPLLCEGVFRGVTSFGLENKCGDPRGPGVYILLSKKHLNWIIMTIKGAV
Method: Figure 3 GzmA ABPs covalently and competitively label active human and mouse GzmA. […] Recombinant hGzmA (100 nM) was incubated with varying concentrations of each ABP at 37 °C. […] Recombinant hGzmA (100 nM) was preincubated with covalent inhibitors 1 or 2 (5 μM) for 2 h, followed by labeling with ABPs 3 -5 (50 nM) for 2 h at 37 °C. Note: […] C) Structure of qABP 6. D) Quenched natures of 5 and 6. […] F) Labeling of mGzmA (1 μM) with 5 and 6 (1 μM, 24 h, 37 °C). […] Recorded fluorescence at Ex/Em: 380/460 nm for residual GzmA proteolytic activity. […] B. Cell culture and preparation of cell lysates All cell lines were cultured at 37 °C under 5% CO2 in a humidified atmosphere. […] The supernatant was collected, and protein concentration was measured using a Pierce BCA protein assay. […] In-gel fluorescence imaging […] […] In-gel fluorescence and SYPRO-Ruby staining images were acquired on a Typhoon FLA9500 instrument, while western blot images were acquired on an […] […] Conditions for probe/inhibitor treatment for in-gel fluorescence analysis: Inhibitors and probes were incubated with active (or pro-) GzmA followed by treatment with 4X SDS reducing sample buffer. […] 20 μL of each sample was loaded onto a 15% polyacrylamide gel, which was then subjected to electrophoresis followed by the acquisition of in-gel fluorescence images. […]

[2] = Stability of probes in buffer and cell media (hydrolysis by Cy5 signal); type: physicochemical; conditions: cell culture media, 11 h incubation, 37 °C, read-out production of Cy5 fluorescence signal, mean ± SD n = 3
Method: Figure 4 Characterization of qABPs in native proteomes. A) Labeling of GzmA by 5 and 6 in lysates of various cell lines (1 h, 37 °C). B) Stability of 5 and 6 in buffer and cell media (11 h, 37 °C). The hydrolysis of probes was measured by monitoring the production of Cy5 fluorescence signal over time. […] C) Labeling of GzmA by probes 3 –6 in NK‐92 cells (2 h, 37 °C). D) Flow cytometry analysis of protein labeling in NK‐92 cells by 3 –5. […] E) Flow cytometry analysis of concentration‐dependent GzmA labeling in NK‐92 cells and S/N of 5 (5 μM, 2 h, 37 °C). […] F) Flow cytometry analysis of protein labeling by 5 in MDA‐MB‐231 cells co‐cultured with NK‐92 cells (see Supporting Information for conditions). […] TEXT PRINTED IN THE PICTURE: (E) qABP 5: S/N = 4

Substance | Labeling of pro-form of GzmA [1] | Hydrolysis of probe [2]
IGNR [compound 5] | No labeling | 
[Tic]G[Oic]R [compound 6] |  | ≈ 20%
